Values quoted from earlier work, collected in US7659264B2, “CGRP receptor antagonists” (Merck Sharp & Dohme Corp., priority 2004, dated 2010).
Where no end group is shown, it is not given here.

Assays:
[1] = system: migraine; conditions: clinical studies, intravenously administered
[2] = system: facial blood flow; conditions: marmoset, electrical stimulation of the trigeminal ganglion
[3] = system: diameter of the middle meningeal artery; conditions: rats, electrical stimulation of the dura mater, prior administration
[4] = system: facial blood flow; conditions: rat, trigeminal ganglion stimulation

| Molecule | acute treatment for migraine [1] | effect on increase in facial blood flow [2] | effect on increased diameter of the middle meningeal artery [3] | effect on increased facial blood flow [4] |
| --- | --- | --- | --- | --- |
| NCCCC[C@H](NC(=O)[C@@H](Cc1cc(Br)c(O)c(Br)c1)NC(=O)N1CCC(N2Cc3ccccc3NC2=O)CC1)C(=O)N1CCN(c2ccncc2)CC1 [BIBN4096BS] | safe and effective acute treatment for migraine | could be blocked | – | – |
| CGRP(8-37): a peptide CGRP antagonist; fragment of CGRP that lacks seven N-terminal amino acid residues (VTHRLAGLLSRSGGVVKNNFVPTNVGSKAF; ends and bridges not checked; UniProt P06881 90-119, looked up, fragment) | – | – | blocked | inhibited |
